Laboratory results: patent US11542488B2, “Sortase synthesized chimeric antigen receptors” (Novartis AG, priority 2014, dated 2023)
Where two headings read alike, the source gives them in different places.

How the values were obtained:
huCART19 cells = experiment: 4 day co-culture proliferation assay of CARTs with Nalm-6 cells in the presence of RAD001; assay type: cell-based, human
Source text: A humanized, anti-human CD19 CAR (huCART19) lentiviral transfer vector was used to produce the genomic material packaged into VSVg pseudotyped lentiviral particles. The amino acid and nucleotide sequence of the humanized anti-human CD19 CAR (huCART19) is CAR 1, ID 104875, described in PCT publication, WO2014/153270, filed Mar. 15, 2014, and is designated SEQ ID NOs. 85 and 31 therein.
Lentiviral transfer vector DNA is mixed with the three packaging components VSVg env, gag/pol and rev in combination with lipofectamine reagent to transfect Lenti-X 293T cells. Medium is changed after 24 h and 30 h thereafter, the virus-containing media is collected, filtered and stored at −80° C. CARTs are generated by transduction of fresh or frozen naïve T cells obtained by negative magnetic selection of healthy donor blood or leukopak. T cells are activated by incubation with anti-CD3/anti-CD28 beads for 24 h, after which viral supernatant or concentrated virus (MOI=2 or 10, respectively) is added to the cultures. The modified T cells are allowed to expand for about 10 days. The percentage of cells transduced (expressing the CARs on the cell surface) and the level of CAR expression (relative fluorescence intensity, Geo Mean) are determined by flow cytometric analysis between days 7 and 9. The combination of slowing growth rate and T cell size approaching ˜350 fL determines the state for T cells to be cryopreserved for later analysis.
To evaluate the functionality of CARTs, the T cells are thawed and counted, and viability is assessed by Cellometer. The number of CAR-positive cells in each culture is normalized using non-transduced T cells (UTD). The impact of RAD001 on CARTs was tested in titrations with RAD001, starting at 50 nM. The target cell line used in all co-culture experiments is Nalm-6, a human pre-B cell acute lymphoblastic leukemia (ALL) cell line expressing CD19 and transduced to express luciferase.
For measuring the proliferation of CARTs, T cells are cultured with target cells at a ratio of 1:1. The assay is run for 4 days, when cells are stained for CD3, CD4, CD8 and CAR expression. The number of T cells is assessed by flow cytometry using counting beads as reference.

NALM6-luc tumors = experiment: Tumor growth of NALM6-luc cells in NSG mice with daily RAD001 dosing; assay type: in vivo; settings: daily oral dosing of RAD001 alone, 0.3, 1, 3 and 10 mg/kg
Experimental: NALM6-luc cells: The NALM6 human acute lymphoblastic leukemia (ALL) cell line was developed from the peripheral blood of a patient with relapsed ALL. The cells were then tagged with firefly luciferase. These suspension cells grow in RPMI supplemented with 10% heat inactivated fetal bovine serum.
Mice: 6 week old NSG (NOD.Cg-PrkdcscidIl2rgtm1Wjl/SzJ) mice were received from the Jackson Laboratory (stock number 005557).
(§1) Tumor implantation: NALM6-luc cells were grown and expanded in vitro in RPMI supplemented with 10% heat inactivated fetal bovine serum. The cells were then transferred to a 15 ml conical tube and washed twice with cold sterile PBS. NALM6-luc cells were then counted and resuspended at a concentration of 10×10^6 cells per milliliter of PBS. The cells were placed on ice and immediately (within one hour) implanted in the mice. NALM6-luc cells were injected intravenously via the tail vein in a 100 μl volume, for a total of 1×10^6 cells per mouse.
(§2) RAD001 dosing: A concentrated micro-emulsion of 50 mg equal to 1 mg RAD001 was formulated and then resuspended in D5W (dextrose 5% in water) at the time of dosing. Mice were orally dosed daily (via oral gavage) with 200 μl of the desired doses of RAD001.

[1] = Pharmacokinetics of RAD001 in the blood of NSG mice with NALM6 tumors; assay type: in vivo; settings: for concentration at 24 h: mouse, blood
Experimental: as §2
PK analysis: Mice were dosed daily with RAD001 starting 7 days post tumor implantation. Dosing groups were as follows: 0.3 mg/kg, 1 mg/kg, 3 mg/kg, and 10 mg/kg. Mice were bled on days 0 and 14 following the first and last dose of RAD001, at the following time points for PK analysis: 15 minutes, 30 minutes, 1 hour, 2 hours, 4 hours, 8 hours, 12 hours, and 24 hours.

huCAR19 CAR T cells = experiment: In vivo proliferation of humanized CD19 CAR T cells with and without RAD001 dosing; design: species or system NSG mice
Experimental: as §1
CAR T cell dosing: Mice were administered 5×10^6 CAR T cells 7 days after tumor implantation. Cells were partially thawed in a 37 degree Celsius water bath and then completely thawed by the addition of 1 ml of cold sterile PBS to the tube containing the cells. The thawed cells were transferred to a 15 ml falcon tube and adjusted to a final volume of 10 mls with PBS. The cells were washed twice at 1000 rpm for 10 minutes each time and then counted on a hemocytometer. T cells were then resuspended at a concentration of 50×10^6 CAR T cells per ml of cold PBS and kept on ice until the mice were dosed. The mice were injected intravenously via the tail vein with 100 μl of the CAR T cells for a dose of 5×10^6 CAR T cells per mouse. Eight mice per group were treated either with 100 μl of PBS alone (PBS), or humanized CD19 CAR T cells.
as §2
Based on these doses, huCAR19 CAR T cells were dosed with and without RAD001 to determine the proliferative ability of these cells. The highest dose used was 3 mg/kg based on the levels of RAD001 in the blood 24 hours after dosing. As the concentration of RAD001 was above 10 nM 24 hours after the final dose of RAD001, several lower doses of RAD001 were used in the in vivo study with CAR T cells. The CAR T cells were dosed IV one day prior to the start of the daily oral RAD001 dosing. Mice were monitored via FACS for T cell expansion.

CD19 = biological target: T1, CD19 (Homo sapiens, UniProt P15391); experiment: Flow cytometry labeling of K562 cells with scFV19 conjugated to TAMRA; assay type: binding
T1 construct: expressed in transfected cells; host or cells: K562
T1 sequence (P15391 20-556): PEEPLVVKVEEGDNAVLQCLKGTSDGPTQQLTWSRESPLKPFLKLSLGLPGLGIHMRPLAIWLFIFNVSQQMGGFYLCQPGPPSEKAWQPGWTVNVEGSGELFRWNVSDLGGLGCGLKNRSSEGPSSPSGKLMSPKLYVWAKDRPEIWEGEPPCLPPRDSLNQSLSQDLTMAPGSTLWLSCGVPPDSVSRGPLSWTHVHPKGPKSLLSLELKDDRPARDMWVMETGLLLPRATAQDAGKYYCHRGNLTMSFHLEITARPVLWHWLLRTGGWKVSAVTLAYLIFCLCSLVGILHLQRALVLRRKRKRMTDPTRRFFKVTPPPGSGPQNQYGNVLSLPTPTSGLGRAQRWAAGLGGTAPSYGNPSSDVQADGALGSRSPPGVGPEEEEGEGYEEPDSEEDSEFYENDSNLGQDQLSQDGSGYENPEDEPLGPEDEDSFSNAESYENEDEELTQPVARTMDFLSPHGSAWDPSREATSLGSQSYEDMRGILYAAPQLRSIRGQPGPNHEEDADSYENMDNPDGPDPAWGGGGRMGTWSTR
Source text: As a control, scFV19 subjected to the same reaction conditions to label the scFV with TAMRA, but omitting sortase (scFV19.LPETG+TAMRA_not conjugated (SEQ ID NO: 112)) was used. Flow cytometry analysis comparing cell labeling is shown.
To determine whether the presence of the sortase-recognition motif interferes with the ability of the scFV19 to recognize CD19, the scFV19.LPETGG.His8 (“LPETGG” and “His8” disclosed as SEQ ID NOS 21 and 111, respectively) was labeled with the G3K(TAMRA) peptide (SEQ ID NO:23) using the mutant sortase A as described in Example 1. […] Upon reaction, each of the preparations were filtered through a desalting column to remove unreacted G3K(TAMRA) peptide (SEQ ID NO: 23). Different concentrations of the scFV19.LPETG3K(TAMRA) conjugate (“LPETG3K” disclosed as SEQ ID NO: 250) and unconjugated control were then used to label untransduced K562 cells or K562 overexpressing CD19. […] Thus, the results presented herein confirm that the scFV19.LPETGG.His8 substrate (“LPETGG” and “His8” disclosed as SEQ ID NOS 21 and 111, respectively) for sortase is functional and that the sortase labeling strategy can be used to create new tools for FACS staining.

Molecule: CO[C@H]1C[C@@H]2CC[C@@H](C)[C@@](O)(O2)C(=O)C(=O)N2CCCC[C@H]2C(=O)O[C@H]([C@H](C)C[C@@H]2CC[C@@H](OCCO)[C@H](OC)C2)CC(=O)[C@H](C)/C=C(\C)[C@@H](O)[C@@H](OC)C(=O)[C@H](C)C[C@H](C)/C=C/C=C/C=C/1C [RAD001, (1R,9S,12S,15R,16E,18R,19R,21R,23S,24E,26E,28E,30S,32S,35R)-1,18-dihydroxy-12-{(1R)-2-[(1S,3R,4R)-4-(2-hydroxyethoxy)-3-methoxycyclohexyl]-1-methylethyl}-19,30-dimethoxy-15,17,21,23,29,35-hexamethyl-11,36-dioxa-4-aza-tricyclo[30.3.1.04,9]hexatriaconta-16,24,26,28-tetraene-2,3,10,14,20-pentaone]
- proliferation of huCART19 cells versus no RAD001 (huCART19 cells; 0.0032 nM RAD001): higher than observed without the addition of RAD001
- proliferation of huCART19 cells versus no RAD001 (huCART19 cells; 0.016 nM RAD001): higher than observed without the addition of RAD001
- RAD001 concentration at which huCART19 cells expanded (huCART19 cells; 4 day co-culture with Nalm-6, ratio 1:1): less than 0.016 nM
- proliferation of CAR-expressing, transduced T cells (huCART19 cells; low doses of RAD001, cell culture system, FIG. 12): enhanced
- growth of NALM6-luc tumors (NALM6-luc tumors): did not have an impact on the growth of NALM6-luc tumors
- concentration at 24 h ([1]; NSG, lowest dose tested (0.3 mg/kg), oral, read-out: RAD001 concentration in the blood 24 hours after dosing): > 10 nM
- stability in the blood of tumor bearing mice ([1]; daily oral dosing, NSG mice): fairly stable
- RAD001 concentration in the blood 24 hours after dosing ([1]; day 14, lowest dose tested (0.3 mg/kg), oral): above 10 nm
- concentration at 24 h ([1]; 0.3 mg/kg, NSG mice, daily oral dosing, read-out: concentration of RAD001 24 hours after the final dose): > 10 nM
- CAR T cell proliferation in vivo versus normal level of huCAR19 proliferation (huCAR19 CAR T cells; 0.003 mg/kg RAD001 daily): enhancement in CAR T cell proliferation
- enhanced proliferation, CD4+ CAR T cells compared with CD8+ CAR T cells (huCAR19 CAR T cells; lowest doses of RAD001): more evident and prolonged
- proliferation of CD8+ CAR T cells in vivo (huCAR19 CAR T cells; lowest doses of RAD001): enhanced proliferation can be seen at early time points
- proliferation of the CAR T cells in vivo (huCAR19 CAR T cells; lowest doses of RAD001, daily oral): enhanced proliferation

B1: scFV19.LPETGG.His8: scFV directed to CD19 comprising a sortase A recognition motif (LPETGG) and a His8 handle at the C-terminus (SEQ ID NO: 22) (protein)
scFv: METDTLLLWVLLLWVPGSTGEIVMTQSPATLSLSPGERATLSCRASQDISKYLNWYQQKPGQAPRLLIYHTSRLHSGIPARFSGSGSGTDYTLTISSLQPEDFAVYFCQQGNTLPYTFGQGTKLEIKGGGGSGGGGSGGGGSQVQLQESGPGLVKPSETLSLTCTVSGVSLPDYGVSWIRQPPGKGLEWIGVIWGSETTYYSSSLKSRVTISKDNSKNQVSLKLSSVTAADTAVYYCAKHYYYGGSYAMDYWGQGTLVTVSSLPETGGLDVLFEGPHHHHHHHH
modifications: C-terminal LPETGG sortase motif and His8 tag
- functionality of scFV19 carrying the sortase-recognition motif (recognition of CD19) (CD19; K562 cells expressing CD19): functional

B2: scFV19.LPETG3K(TAMRA) conjugate (conjugate)
scFv: EIVMTQSPATLSLSPGERATLSCRASQDISKYLNWYQQKPGQAPRLLIYHTSRLHSGIPARFSGSGSGTDYTLTISSLQPEDFAVYFCQQGNTLPYTFGQGTKLEIKGGGGSGGGGSGGGGSQVQLQESGPGLVKPSETLSLTCTVSGVSLPDYGVSWIRQPPGKGLEWIGVIWGSETTYYSSSLKSRVTISKDNSKNQVSLKLSSVTAADTAVYYCAKHYYYGGSYAMDYWGQGTLVTVSSLPETGGGK
- cell labeling by flow cytometry (CD19; untransduced K562 cells or K562 overexpressing CD19, 30 min at 4° C., control reaction without sortase): cell labeling was observed only with the conjugate and only on K562 cells expressing CD19
